Where “and” joins values, the source holds several entries; their conditions need not be identical. Equal entries are not always repeated.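 Assay format: 96-well plates, 48-hour exposure. GI50 = concentration required for 50% inhibition of growth. TGI is the concentration that stops growth completely.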
Assays:
Assay in all cases: NCI-60 cell line screen, 48 h
MCF7 breast = tested on: MCF7 breast
CCRF-CEM leukemia = tested on: CCRF-CEM leukemia
KM20L2 colon = tested on: KM20L2 colon
NCI-H23 lung = tested on: NCI-H23 lung
HS 578T breast = tested on: HS 578T breast
OVCAR-8 ovarian = tested on: OVCAR-8 ovarian
T-47D breast = tested on: T-47D breast
SF-539 CNS = tested on: SF-539 CNS
M19-MEL melanoma = tested on: M19-MEL melanoma
SR leukemia = tested on: SR leukemia

Row | SMILES | GI50 (MCF7 breast) | TGI (MCF7 breast) | GI50 (CCRF-CEM leukemia) | TGI (CCRF-CEM leukemia) | TGI (KM20L2 colon) [µM] | GI50 (NCI-H23 lung) | TGI (NCI-H23 lung) | GI50 (HS 578T breast) [µM] | TGI (HS 578T breast) | GI50 (OVCAR-8 ovarian) | TGI (OVCAR-8 ovarian) | GI50 (T-47D breast) | TGI (T-47D breast) | GI50 (SF-539 CNS) [nM] | TGI (SF-539 CNS) | TGI (M19-MEL melanoma) [µM] | GI50 (SR leukemia) | TGI (SR leukemia) | GI50 (KM20L2 colon) [nM] | GI50 (M19-MEL melanoma) [µM]
1 | O=c1n(CC2CO2)c(=O)n(CC2CO2)c(=O)n1CC1CO1 (configuration not stated) | 3.9 µM and 1.89 µM | 85.7 µM and > 100 µM | 6050 nM and 2920 nM | 223 µM and > 100 µM | 201 | 14.2 µM and 7.3 µM | 90.9 µM and > 100 µM | 21.6 | 188 µM and > 100 µM | 25.3 µM and 12.9 µM | 148 µM and > 100 µM | 7.66 µM and 10 µM | 70.3 µM and > 100 µM | 2920 | 41.6 µM and 24.7 µM | 113 | 13.2 µM and 1.5 µM | 877 µM and > 100 µM |  | 
2 | O=S(=O)([O-])c1ccc2c(c1)-c1nc-2nc2[n-]c(nc3nc(nc4[n-]c(n1)c1ccc(S(=O)(=O)[O-])cc41)-c1cc(S(=O)(=O)[O-])ccc1-3)c1ccc(S(=O)(=O)[O-])cc21.[Cu+2].[Na+] | > 100 µM | > 100 µM | 580 nM | > 39.5 µM | > 100 | 98.4 µM | > 100 µM | > 100 | > 100 µM | > 100 µM | > 100 µM | 75.6 µM | > 100 µM | > 100000 | > 100 µM | > 100 | 11.2 µM | > 100 µM | 2350 | 6.21
3 | C=C(CCCCC)CN1CCCC1[C@@](C)(O)CC(=O)OCC (some centres not stated) |  |  |  | > 100 µM | > 100 |  | > 100 µM |  |  |  | > 100 µM |  |  |  | > 100 µM | > 100 |  | > 100 µM |  | 
4 | CNC(=S)NC1CCCCC1NC(=S)NC (configuration not stated) |  |  |  | > 100 µM | > 100 |  | > 100 µM |  |  |  | > 100 µM |  |  |  | > 100 µM | > 100 |  | > 100 µM |  | 
